{"source": "patent US20170042890A1", "about": "“METHODS OF REDUCING DECLINE IN VITAL CAPACITY” (Cytokinetics, Inc., priority 2014, published 2017)", "key": {"[1]": {"assay": "BENEFIT-ALS clinical trial: body weight", "format": "in vivo", "details": "N=178", "method": "(§1) BENEFIT-ALS was a multi-national, randomized, stratified, double-blind, placebo-controlled, parallel-group study of tirasemtiv in patients with ALS. The study consisted of a screening period, an open-label/lead-in period, and a double-blind treatment period. Following screening, eligible patients received open-label tirasemtiv, 125 mg BID, for 7 days. Patients who tolerated the 7-day lead-in period were randomized in a 1:1 ratio to tirasemtiv or placebo. Over the first 3 weeks of double-blind treatment, patients randomized to tirasemtiv had their TDD up-titrated as follows: 250 mg for 7 days, then 375 mg for 7 days, then 500 mg for 7 days. […] However, in such cases, dose escalation was re-attempted at least one additional time. The highest tolerable tirasemtiv dose for each individual patient was the dose that patient received for the remaining 9 weeks (i.e., the maximum tolerated dose [MTD] phase) of the study. Patients randomized to placebo underwent a corresponding dummy dose titration.\n(§2) Safety data presented were based on the safety analysis set, defined as all patients who received at least 1 dose of double-blind study drug. Of the 605 randomized patients, 596 (295 placebo, 301 tirasemtiv) received at least 1 dose of double-blind study drug and were included in the safety analysis set. Data for the primary and secondary efficacy endpoints were analyzed with the Modified FAS. This analysis set included all patients who received at least 1 dose of double-blind study drug and had at least 1 efficacy assessment during the double-blind treatment period, and excluded 156 patients who were randomized in blocks containing patients affected by a study drug assignment error in which 58 patients randomized to and treated with double-blind tirasemtiv were dispensed double-blind placebo instead. Based on these criteria, the Modified FAS consisted of 388 patients (210 placebo, 178 tirasemtiv)."}, "[2]": {"test_system": "patients with ALS", "assay": "BENEFIT-ALS clinical trial: ALSFRS-R total score", "format": "in vivo, human", "details": "Modified FAS", "method": "as §1\nRandomization was stratified by riluzole use. […] Clinical assessments occurred every 4 weeks during double-blind treatment; patients also returned for follow-up evaluations at 1 and 4 weeks after their final dose of double-blind study medication (FIG. 1). […]\nEligible patients were males and females, 18 years of age and older, with a diagnosis of familial or sporadic ALS and meeting the World Federation of Neurology El Escorial criteria of definite ALS, probable ALS, laboratory-supported probable ALS, or possible ALS. Patients were to have an upright SVC>50% of predicted for age, height, and sex, a diminished, but measurable, maximum voluntary grip strength in at least one hand (i.e., between 10-50 pounds for females and 10-70 pounds for males), and at least 4 of the 12 ALSFRS-R questions were to have been scored as a 2 or 3. […]\nSafety data presented were based on the safety analysis set, defined as all patients who received at least 1 dose of double-blind study drug. […] Data for the primary and secondary efficacy endpoints were analyzed with the Modified FAS. […]"}, "[3]": {"test_system": "patients with ALS", "assay": "BENEFIT-ALS clinical trial: muscle strength mega-score", "format": "in vivo, human", "details": "for Muscle strength mega-score change from baseline (LS mean): based on percent change from baseline across several muscle groups", "method": "as §1\nRandomization was stratified by riluzole use. […] Clinical assessments occurred every 4 weeks during double-blind treatment; patients also returned for follow-up evaluations at 1 and 4 weeks after their final dose of double-blind study medication (FIG. 1).\nThe secondary objectives included assessments of the effect of tirasemtiv versus placebo on measures of respiratory function (Maximum Voluntary Ventilation (MVV), Sniff Nasal Inspiratory Pressure (SNIP), SVC) and skeletal muscle function including handgrip fatigue and muscle-strength mega-score (i.e., the average z-score for muscle strength measurements across the following tested bilateral muscle groups: elbow flexion, wrist extension, knee extension, ankle dorsiflexion, and handgrip)). Secondary endpoints included the changes from baseline in each of the above mentioned measures (MVV, SNIP, SVC, and muscle-strength mega-score) for the Modified FAS, and the slope of each of the measures from baseline to Week 12 for the Modified FAS.\nEligible patients were males and females, 18 years of age and older, with a diagnosis of familial or sporadic ALS and meeting the World Federation of Neurology El Escorial criteria of definite ALS, probable ALS, laboratory-supported probable ALS, or possible ALS. Patients were to have an upright SVC>50% of predicted for age, height, and sex, a diminished, but measurable, maximum voluntary grip strength in at least one hand (i.e., between 10-50 pounds for females and 10-70 pounds for males), and at least 4 of the 12 ALSFRS-R questions were to have been scored as a 2 or 3. Patients were to be able to swallow tablets without crushing, and in the opinion of the investigator, were expected to do so for the duration of the study. If the patient needed a caregiver, the caregiver was to be able to observe the patient's status. Clinical laboratory results were to be either within their respective normal ranges or if outside the normal range, deemed not clinically significant by the investigator. […] Patients not taking riluzole prior to study entry were not permitted to take riluzole at any dose during the course of the study.\nas §2, with “Based on these criteria, the Modified FAS consisted of 388 patients (210 placebo, 178 tirasemtiv).” left out"}, "[4]": {"test_system": "muscle contraction / grip strength", "details": "cited from earlier work"}}, "data": [{"compound": "C#Cc1cnc2nc(O)n(C(CC)CC)c2n1", "note": "[Tirasemtiv, 6-ethynyl-1-(pentan-3-yl)-1H-imidazo[4,5-b]pyrazin-2(3H)one]", "values": [{"measurement": "Weight change from baseline, LS mean", "setting": "[1]; Week 4", "result": -0.83, "unit": "kg"}, {"measurement": "Weight change from baseline, LS mean", "setting": "[1]; Week 8", "result": -1.30, "unit": "kg"}, {"measurement": "Weight change from baseline, LS mean", "setting": "[1]; Week 12", "result": -1.70, "unit": "kg"}, {"measurement": "ALSFRS total score change versus placebo, in words", "setting": "[2]; Visits 6 and 7", "result": "not statistically different between treatment groups"}, {"measurement": "LS mean±SE difference between treatment groups (tirasemtiv response minus placebo response) in ALSFRS total score change", "setting": "[2]; Visits 6 and 7, 95% CI −1.30, 0.14, p=0.114", "result": "−0.58±0.366"}, {"measurement": "LS mean change from baseline to the average of ALSFRS total score at Visits 6 and 7", "setting": "[2]; after approx. 8 and 12 weeks double-blind, tirasemtiv BID up to 500 mg/day", "result": "−2.98"}, {"measurement": "Muscle strength mega-score slope from baseline to Week 12", "setting": "[3]; Modified FAS N=178", "result": "−0.1104"}, {"measurement": "Muscle strength mega-score change from baseline (LS mean)", "setting": "[3]; Week 4", "result": "−4.36"}, {"measurement": "Muscle strength mega-score change from baseline (LS mean)", "setting": "[3]; Week 8", "result": "−7.43"}, {"measurement": "Muscle strength mega-score change from baseline (LS mean)", "setting": "[3]; Week 12", "result": "−10.78"}, {"measurement": "Muscle strength mega-score difference in slope (tirasemtiv vs placebo)", "setting": "[3]; p=0.0158", "result": 0.1647}, {"measurement": "Muscle strength mega-score decline versus placebo, in words", "setting": "[3]; p=0.0158 for the difference in slope", "result": "declined more slowly"}, {"measurement": "Grip strength", "setting": "[4]; preclinical models of limited neuromuscular input", "result": "increased grip strength"}, {"measurement": "Force of muscle contraction", "setting": "[4]; submaximal nerve stimulation frequencies", "result": "increased the force of muscle contraction"}]}]}
